Literature values as cited in PMC10126514, “The interaction of peptide inhibitors and Aβ protein: Binding mode analysis, inhibition of the formation of Aβ aggregates, and then exert neuroprotective effects” (Frontiers in Aging Neuroscience, 2023).

Conditions: ref Wang et al., 2019, Behl et al., 2020, Tolar et al.; cited from earlier work

CCN(C)C(=O)Oc1cccc([C@H](C)N(C)C)c1 [rivastigmine]
Potential side effects: Diarrhea, vomiting, nausea, and abdominal cramps
